Counter-ions that a name gives are not always drawn.
Tested on: psoriatic lesions on the patient's elbow, face and scalp
Test: Grading of psoriatic lesions in a patient after intravenous enalkiren
Assay type: in vivo, human
Design: key to Right Elbow Lesions lesion severity, lesion ranking: 0: Complete clearing; 1: Minimal severity; 2: Moderately severe; 3: Severe; 4: More severe; key to Right Elbow Lesions erythema, lesion ranking / Face Lesions erythema, lesion ranking / Scalp Lesions erythema, lesion ranking: 0: None; 1: Very Mild: light red/pink; 2: Moderate: red but still not dark in texture; 3: Strong: very red, possibly dark; 4: Extreme: angry red
Procedure: A patient with documented psoriasis received 0.1 mg/kg of enalkiren (H-((beta,beta-dimethyl)-beta-Ala)-(4-OCH3)Phe-His amide of 2(S)-amino-1cyclohexyl-3(R), 4(S)-dihydroxy-6-methylheptane diacetic acid salt)(enalkiren 5.0 mg/5 ml (0.1% concentration), glacial acetic acid 0.91 mg/5ml and sodium chloride 43.9 mg/5 ml in water for injection) intravenously over a 5 minute period, followed 40 minutes later by administration of an additional 0.3 mg/kg of enalkiren intravenously over a 5 minute period. The psoriatic lesions on the patient's elbow, face and scalp were graded prior to treatment and 2, 4 and 7 days following treatment.

[1] = +2 Days after 0.1 mg/kg then 0.3 mg/kg intravenously
[2] = +4 Days after 0.1 mg/kg then 0.3 mg/kg intravenously
[3] = +7 Days after 0.1 mg/kg then 0.3 mg/kg intravenously
[4] = Treatment Day (graded prior to treatment), person with psoriasis

COc1ccc(C[C@H](NC(=O)CC(C)(C)N)C(=O)N[C@@H](Cc2cnc[nH]2)C(=O)N[C@@H](CC2CCCCC2)[C@@H](O)[C@@H](O)CC(C)C)cc1 [Enalkiren, H-((beta,beta-dimethyl)-beta-Ala)-(4-OCH3)Phe-His amide of 2(S)-amino-1cyclohexyl-3(R), 4(S)-dihydroxy-6-methylheptane diacetic acid salt]
2: Face Lesions erythema, lesion ranking [2] | Face Lesions erythema, lesion ranking [3]
3: Face Lesions erythema, lesion ranking [1] | Right Elbow Lesions erythema, lesion ranking [2] | Right Elbow Lesions lesion severity, lesion ranking [2] | Scalp Lesions erythema, lesion ranking [2] | Right Elbow Lesions erythema, lesion ranking [3] | Right Elbow Lesions lesion severity, lesion ranking [3] | Scalp Lesions erythema, lesion ranking [3] | Face Lesions erythema, lesion ranking [4]
4: Right Elbow Lesions erythema, lesion ranking [1] | Right Elbow Lesions lesion severity, lesion ranking [1] | Scalp Lesions erythema, lesion ranking [1] | Right Elbow Lesions erythema, lesion ranking [4] | Right Elbow Lesions lesion severity, lesion ranking [4] | Scalp Lesions erythema, lesion ranking [4]
